SMILES strings stand for the structures.

Common to all, as to assay type: physicochemical
The nature of data set [1]: Evaluation of liquid crystallinity (hot stage, polarization microscope). Also on record: key: A case of having liquid crystallinity was evaluated as A; a case of having no liquid crystallinity was evaluated as B. The note with it: heated on a hot stage. The procedure:
The respective compounds (the compounds A-1 to A-11 and the compounds B-1 and B-2) were heated on a hot stage and observed with a polarization microscope, and the phase transition temperature was measured to evaluate the presence or absence of the liquid crystallinity. A case of having liquid crystallinity was evaluated as A, and a case of having no liquid crystallinity was evaluated as B. The results are shown in Table 1.
Since the compound A-8 has melting points of 200° C. or higher and undergoes a polymerization reaction during heating, liquid crystallinity could not be evaluated.

The nature of data set [2]: Measurement of Δn (refractive index anisotropy), wedge-shaped liquid crystal cell. The note with it: 550 nm, 30° C. or lower limit temperature of nematic phase +0 to 10° C.; some compounds extrapolated from 1/2 mixture with L-1-1. The procedure:
The Δn of each of the compounds (the compounds A-1 to A-11 and the compounds B-1 and B-2), which are the compounds to be measured, was measured by a method using a wedge-shaped liquid crystal cell described on page 202 in the Liquid crystal handbook (edited by the liquid crystal handbook editorial board, published by Maruzen Co., Ltd., 2000). Δn was defined as a measured value at a wavelength of 550 nm at 30° C. or the lower limit temperature of the nematic phase +0° C. to 10° C. In a case of a compound which is liable to crystallize or a compound having no liquid crystallinity, evaluation was carried out using a mixture thereof with the other liquid crystal compound, and Δn was estimated from the extrapolated value of the measured value thereof. The following L-1-1 was used as the other liquid crystal compound. As the above mixture, a mixture obtained by mixing at a ratio of the compound to be measured/the L-1-1=1/2 (in terms of mass ratio) was used.
A case where Δn was 0.40 or more was evaluated as A, a case where Δn was 0.35 or more and less than 0.40 was evaluated as B, a case where Δn was 0.30 or more and less than 0.35 was evaluated as C, and a case where Δn was less than 0.30 was evaluated as D. The results are shown in Table 1.

Data set [3] in a line: Evaluation of solubility in cyclopentanone. The note with it: precipitation concentration in cyclopentanone at 25° C. The procedure: The solubility of each of the compounds (the compounds A-1 to A-11 and the compounds B-1 and B-2) in cyclopentanone was evaluated.
A short description of data set [4]: Evaluation of light resistance of optically anisotropic layer (Super Xenon Weather Meter). The note with it: rate of change in Re of cured layer (25 parts compound, 75 parts L-1), 5 million lx, 50 hours, 63° C., 50% RH, oxygen-blocking. As to the method: (§1) As shown below, the light resistance and the durability of the optically anisotropic layer produced using the composition containing each of the compounds A-1 to A-11 and the compounds B-1 and B-2 were evaluated.
(§2) A coating liquid having the following composition was prepared and applied by spin-coating, onto a rubbing-treated glass attached with an alignment film. Each composition was irradiated with ultraviolet rays of 300 mJ/cm^2 through a filter that cuts light having a wavelength of 350 nm or less on a hot plate which had been heated to a temperature at which a nematic phase is shown, whereby an optically anisotropic layer for a light resistance/durability test was produced.
(§3) The polymerizable liquid crystal compound L-1 is a mixture obtained by mixing at a
(§4) ratio of the following L-1-1/L-1-2/L-1-3=84/14/2 (in terms of mass ratio).
The produced optically anisotropic layers for light resistance/durability tests were irradiated with light using a Super Xenon Weather Meter SX75 manufactured by Suga Test Instruments Co., Ltd. Using KU-1000100 manufactured by King Seisakusho Co., Ltd. as a UV cut filter, a light resistance test was carried out by irradiation with 5 million lx of light for 50 hours under an oxygen-blocking condition. The temperature of the specimen to be tested (the temperature inside the test device) was set to 63° C. The relative humidity in the test device was 50% RH.
The Re of the optically anisotropic layer before and after the light resistance test was measured, the light resistance in a case where the rate of change in Re described below was less than 10% was evaluated as A, and the light resistance in a case where the rate of change in Re was 10% or more was evaluated as B. The smaller the rate of change in Re, the more excellent the light resistance.
(§5) Rate of change in Re (%)=[100×{|(Re after test)−(Re before test)|}/(Re before test)]
(§6) Re was measured with Axoscan manufactured by Axometrics Inc. at a wavelength of 550 nm, and the measurement temperature was set to room temperature.

Data set [5] can be described thus: Evaluation of durability of optically anisotropic layer (moisture-heat resistance test). The note with it: rate of change in Re of cured layer (25 parts compound, 75 parts L-1), 136 hours at 100° C., humidity 95%. As to the method:
as §1, §2, §3, §4, §5, §6
The produced optically anisotropic layer was allowed to be left for 136 hours at 100° C. and a humidity of 95%, whereby a moisture-heat resistance test was carried out. The rate of change in Re before and after the durability test was evaluated, the durability in a case where the rate of change in Re was less than 10% was evaluated as A, and the durability in a case where the rate of change in Re was 10% or more was evaluated as B. The smaller the rate of change in Re, the more excellent the durability.

In the case of `CC(=O)OCCCCCCCCCCOc1ccc(C#Cc2ccc(OC(=O)c3ccc(C#Cc4ccc(OCCCCCCCCCCOC(C)=O)c(F)c4)cc3)cc2)cc1F` [Compound B-1, reference compound], the Liquid crystallinity entry in data set [1] is recorded as “A”. Besides, the Δn entry in data set [2] is reported as “D (a case where Δn was less than 0.30 was evaluated as D)”. For the same molecule, the Solubility result in data set [3] is listed as “A (the solubility in a case where the precipitation concentration was 5% by mass or more was evaluated as A)”. Further, the Light resistance result in data set [4] is “B (the light resistance in a case where the rate of change in Re was 10% or more was evaluated as B)”. Also, the Durability result in data set [5] was “A (the durability in a case where the rate of change in Re was less than 10% was evaluated as A)”.
In the case of `C=CC(=O)OCCCCOc1ccc(C(=O)Nc2ccc(C#Cc3ccc4cc(OCCCCOC(=O)C=C)ccc4c3)cc2C(F)(F)F)cc1` [Compound B-2, reference compound], in data set [1], the Liquid crystallinity result is recorded as “A”. In data set [2], the Δn entry was “C (a case where Δn was 0.30 or more and less than 0.35 was evaluated as C)”. The Solubility entry in data set [3] is “A (the solubility in a case where the precipitation concentration was 5% by mass or more was evaluated as A)”. In addition, the Light resistance entry in data set [4] is “A (the light resistance in a case where the rate of change in Re described below was less than 10% was evaluated as A)”. In addition, the Durability entry in data set [5] is on record as “A (the durability in a case where the rate of change in Re was less than 10% was evaluated as A)”.
